Assay results taken from patent US20070244154A1, “Substituted Tricyclic Benzimidazoles” (Altana Pharma AG, priority 2004, published 2007).

system: pentagastrin-stimulated acid secretion of the perfused rat stomach; assay: Secretion-inhibiting action on the perfused rat stomach; conditions: anesthetized female CD rat, dose 3 μmol/kg i.d. (intraduodenal)
Text: Testing of the Secretion-Inhibiting Action on the Perfused Rat Stomach
In Table A which follows, the influence of the compounds of the formula 1 according to the invention on the pentagastrin-stimulated acid secretion of the perfused rat stomach after intraduodenal admnistation in vivo is shown.
The abdomen of anesthetized rats (CD rat, female, 200-250 g; 1.5 g/kg i.m. urethane) was opened after tracheotomy by a median upper abdominal incision and a PVC catheter was fixed transorally in the esophagus and another via the pylorus such that the ends of the tubes just projected into the gastric lumen. The catheter leading from the pylorus led outward into the right abdominal wall through a side opening.
After thorough rinsing (about 50-100 ml), warm (37° C.) physiological NaCl solution was continuously passed through the stomach (0.5 ml/min, pH 6.8-6.9; Braun-Unita I). The pH (pH meter 632, glass electrode EA 147; φ=5 mm, Metrohm) and, by titration with a freshly prepared 0.01N NaOH solution to pH 7 (Dosimat 665 Metrohm), the secreted HCl were determined in the effluent in each case collected at an internal of 15 minutes.
The gastric secretion was stimulated by continuous infusion of […] (=1.65 ml/h) of i.v. pentagastrin (left femoral vein) about 30 min after the end of the operation (i.e. after determination of 2 preliminary fractions). The substances to be tested were administered intraduodenally in a 2.5 ml/kg liquid volume 60 min after the start of the continuous pentagastrin infusion. The body temperature of the animals was kept at a constant 37.8-38° C. by infrared irradiation and heat pads (automatic, stepless control by means of a rectal temperature sensor).

SMILES	inhibition in vivo at 3 µmol/kg [%]
CCCCO[C@@H]1c2c(C(=O)N(C)C)cc3c(nc(C)n3C)c2N[C@H](c2ccccc2)[C@H]1O [Example 14, (6R,7R,8R)-[6-n-Butyloxy-7-hydroxy-2,3-dimethyl-8-phenyl-6,7,8,9-tetrahydro-3H-imidazo[4,5-h]quinoline-5-yl]-carboxylic acid dimethylamide]	> 15
CNC(=O)c1cc2c(nc(C)n2C)c2c1[C@@H](CC(F)F)[C@@H](O)[C@@H](c1ccccc1)N2 [Example 10, (6R,7R,8R)-[7-Hydroxy-2,3-dimethyl-8-phenyl-6-(2,2-difluoroethyl)-6,7,8,9-tetrahydro-3H-imidazo[4,5-h]quinoline-5-yl]-carboxylic acid methylamide]	> 15
CNC(=O)c1cc2c(nc(C)n2C)c2c1C[C@@H](O)[C@@H](c1ccccc1)N2 [Example 11, (7R,8R)-[7-Hydroxy-2,3-dimethyl-8-phenyl-6,7,8,9-tetrahydro-3H-imidazo[4,5-h]quinoline-5-yl]-carboxylic acid methylamide]	> 15
Cc1nc2c3c(c(C(=O)N(C)C)cc2n1C)C[C@@H](O)[C@@H](c1ccccc1)N3 [Example 15, (7R,8R)-[7-Hydroxy-2,3-dimethyl-8-phenyl-6,7,8,9-tetrahydro-3H-imidazo[4,5-h]quinoline-5-yl]-carboxylic acid dimethylamide]	> 15
CCCCO[C@H]1c2c(C(=O)N(C)C)cc3c(nc(C)n3C)c2N[C@H](c2ccccc2)[C@H]1O [Example 13, (6S,7R,8R)-[6-n-Butyloxy-7-hydroxy-2,3-dimethyl-8-phenyl-6,7,8,9-tetrahydro-3H-imidazo[4,5-h]quinoline-5-yl]-carboxylic acid dimethylamide]	> 15
CNC(=O)c1cc2c(nc(C)n2C)c2c1[C@H](O)[C@H](O)[C@@H](c1ccccc1)N2 [Example 1, (6S,7R,8R)-[6,7,8,9-Tetrahydro-6,7-dihydroxy-2,3-dimethyl-8-phenyl-3H-imidazo[4,5-h]quinoline-5-yl]-carboxylic acid methylamide]	> 15
CCCCO[C@@H]1c2c(C(=O)NC)cc3c(nc(C)n3C)c2N[C@H](c2ccccc2)[C@H]1O [Example 4, (6R,7R,8R)-[6-n-butyloxy-6,7,8,9-tetrahydro-7-hydroxy-2,3-dimethyl-8-phenyl-3H-imidazo[4,5-h]quinoline-5-yl]-carboxylic acid methylamide]	> 15
CCCCO[C@H]1c2c(C(=O)NC)cc3c(nc(C)n3C)c2N[C@H](c2ccccc2)[C@H]1O [Example 3, (6S,7R,8R)-[6-n-butyloxy-6,7,8,9-tetrahydro-7-hydroxy-2,3-dimethyl-8-phenyl-3H-imidazo[4,5-h]quinoline-5-yl]-carboxylic acid methylamide]	> 15
CNC(=O)c1cc2c(nc(C)n2C)c2c1[C@@H](O)[C@H](O)[C@@H](c1ccccc1)N2 [Example 2, (6R,7R,8R)-[6,7,8,9-Tetrahydro-6,7-dihydroxy-2,3-dimethyl-8-phenyl-3H-imidazo[4,5-h]quinoline-5-yl]-carboxylic acid methylamide]	> 15
Cc1nc2c3c(c(C(=O)N(C)C)cc2n1C)C(O)[C@H](O)[C@@H](c1ccccc1)N3 (stereo partly drawn) [Example 12, (7R,8R)-[6,7-Dihydroxy-2,3-dimethyl-8-phenyl-6,7,8,9-tetrahydro-3H-imidazo[4,5-h]quinoline-5-yl]carboxylic acid dimethylamide]	> 15
C#CCO[C@H]1c2c(C(=O)NC)cc3c(nc(C)n3C)c2N[C@H](c2ccccc2)[C@H]1O [Example 7, (6S,7R,8R)-[6,7,8,9-Tetrahydro-7-hydroxy-2,3-dimethyl-8-phenyl-6-propargyloxy-3H-imidazo[4,5-h]quinoline-5-yl]-carboxylic acid methylamide]	> 15

system: not given; assay: not given; conditions: not given

melting point [°C]	SMILES
265 to 268	CNC(=O)c1cc2c(nc(C)n2C)c2c1C[C@@H](O)[C@@H](c1ccccc1)N2 [Example 11, (7R,8R)-[7-Hydroxy-2,3-dimethyl-8-phenyl-6,7,8,9-tetrahydro-3H-imidazo[4,5-h]quinoline-5-yl]-carboxylic acid methylamide]
